Results: patent US8877949B2, “Furo[3,2-g]chromene compounds and uses thereof” (Shenyang Pharmaceutical University, priority 2010, dated 2014)

Columns and labels:
[1] = system: uteri; experiment: Uterotrophic/anti-uterotrophic assay in juvenile rats (4 days); format: in vivo, rat; details: immature female Sprague-Dawley rats, i.p., dose not stated, n = 2
Method: The estrogen and anti-estrogen properties of the compound can be tested in the uterotrophic assay (4 days) in juvenile rats. Immature rats (Sprague-Dawley rats) (female, 18 days old) were divided into 6 test groups. All these animals were i.p. injected with 10 μg of the compound, 100 μg of the compound per day, (100 μg of the compound and 1 μg 176 estradiol), so as to investigate anti-estrogens; and treated with 1 μg of 176 estradiol, wherein 50% DMSO/50% saline was used as injection media. These animals were sacrificed by CO2 asphyxiation on Day 4. Their uteri were extracted, and excessive fats and all liquid were removed. Then the wet weight of the uteri was measured. A part of one corner of the uterus was separated and analyzed histologically. The rest part was used to isolate whole RNA, so as to evaluate the expression of complement component 3 gene.

[2] = system: MCF-7/ERE; experiment: MCF-7/ERE anti-proliferation assay (ERE-tk-luciferase); format: cell-based; details: Homo sapiens, MCF7; n = 2
Method: Stock solutions (usually, 0.1 M) of the test compounds were prepared in DMSO, and then diluted by 10-100 folds in DMSO, so as to achieve the working solutions with a concentration of 1-10 mM. The stock solutions (in DMSO) were stored at 4° C. (0.1 M) or −20° C. (<0.1 M). MCF-7 cells were passaged twice per week using a growth medium (i.e. a D-MEM/F-12 medium). The cells were kept in a 37° C., aerated flask in an incubator filled with 5% CO2/95% humid air. One day before the treatment, a 96-well titration plate was coated with the cells in the medium, 25000 cells/well, and then cultured at 37° C., overnight.
The cells were transfected with 50 μL/well of 1/10 diluted adenovirus 5-ERE-tk-luciferase in the test medium (i.e. a D-MEM/F-12 medium without phenolsulfonphthalein) for 2 h. Then each well was washed once with 150μλ of the test medium. At last, the cells were divided into several replicates and treated at 37° C. for 24 h, wherein 8 wells were treated with 150μλ/well vehicle (≦0.1% v/v DMSO) or the compound diluted by ≧1000 folds with the test medium.
A primary screen of the test compounds was conducted with a single dose of 1 μM, wherein the test compound was alone (an agonist mode) or in combination with 0.1 nM 17β estradiol (EC80: an antagonist mode). Each 96-well plate also contained a vehicle control group (0.1% v/v DMSO) and an agonist control group (0.1 or 1 nM 17β estradiol). In the agonist and/or antagonist mode, a dose-response experiment was conducted for the active compounds which were increased by logarithm of 10^−14˜10^−5 M. Based on these dose-response curves, EC50 and IC50 values were determined respectively. The final titration wells in each treatment groups contained 5 μL of 3×10^−5 M ICC-182780 (10^−6 M final concentration), as an ER antagonist control.
After the treatment, the cells were lysed in 25 μL/well of 1× cell-culture lytic agent (Promega Corporation) for 15 min. Cell lysate (20 μL) was transferred into a 96-well photometer plate. The luciferase activity was measured with 100 μL/well of the substrate for luciferase (Promega Corporation) in MicroLumat LB 96P photometer (EG&G Berthold). Before adding the substrate, a background measurement was performed for each well for 1 s. After adding the substrate, the luciferase activity was measured after 1 s delay and within 10 s. The data obtained from the photometer were analyzed by JMF software (SAS Institute). Using this program, the background reading of the luciferase activity in each well was subtracted, and then the average and standard deviation were calculated for each group of treatment.
The above luciferase data were subjected to a logarithmic transformation, and the weights of the transformed results which were far away from the median was reduced using Huber M-estimator. The transformed and weighted data were analyzed using JMF software, so as to conduct a one-way ANOVA (D test). The results of the compound treatment groups were compared with that of a vehicle control group in the agonist mode, or with that of a positive agonist control group in the antagonist mode (0.1 nM 17β-estradiol). […] In addition, EC50 and/or IC50 values were determined from a nonlinear dose-response curve using JMF software.

[3] = system: Ovarian Cancer Cells SKOV3; experiment: Effect on the proliferation of ovarian cancer cells SKOV3 (MTT); format: cell-based; details: Homo sapiens, SK-OV-3, n = 3
Method: Cells in the logarithmic growth phase were digested with trypsin, added to a 96-well plate, in a density of 6×10^3 cells/well, and cultured in a 37° C., 5% CO2 incubator. The next day, the plated was transferred to and kept in a 4° C. incubator for 1 h after the adherence of most cells, so as to achieve synchronized growth of the cells. The supernatant was sucked out, and a RPMI 1640 medium containing 10% fetal calf serum (FCS) was added, 200 μL/well. The cells were grouped according to the design of the experiment. The injectable solution of the compound prepared with sterile physiological saline was added to the 96 wells, 200 μL/well, so that the concentrate of the medicament in each well were 1 mg/mL, 2 mg/mL and 5 mg/mL, respectively. A concentration of 0 mg/mL was used as a negative control group. After subsequent cultivation for 24, 48, or 72 h, 20 μL MTT solution (with a concentration of 5 mg/mL) was added to each well, respectively. The plate was shaken gently, returned to the incubator and incubated for another 4 h. Then the supernatant was sucked out completely, and 200 μL of dimethyl sulfoxide was added to each well. The plate was shaken for 5-10 min on a shaker. The absorption (A=580) of each well at a wavelength of 580 nm was measured using a microplate reader. The A=580 value was proportional to the number of live cells.

[4] = system: Osteosarcoma Cells U2OS-EGFP-4A12G; experiment: Effect on the proliferation of osteosarcoma cells U2OS-EGFP-4A12G (MTT); format: cell-based; details: n = 3
Method: Cells in the logarithmic growth phase were digested with trypsin, counted with trypan blue, and prepared into a cellular suspension with a density of 1×10^4 cells/mL. The suspension was seeded in a 96-well plate, 200 μL/well, about 2×10^3 cells/well, and pre-cultured for 24 h. […] A concentration of 0 mg/mL was used as a negative control group. After subsequent cultivatation for 0 h, 12 h, 24 h or 48 h, 20 μL MTT solution (5 mg/mL) was added to each well. The cultivation was terminated after another 4 h incubation. The supernatant in each well was sucked out carefully, and 150 μL of dimethyl sulfoxide (DMSO) was added to each well. The plate was shaken for 10 min, so that formazan was dissolved thoroughly. The absorption value (A value) of each well was measured using an enzyme linked immunosorbent detector, at a selected wavelength of 490 nm. The measurement was repeated for 5 times.

Structure (SMILES) | percentage of weight gain of uteri [1] [%] | IC50 [2] [µM] | IC50 [3] [µM] | IC50 [4] [µM]
O=C(c1ccc(OCC(=O)N2CCOCC2)cc1)c1oc2cc3c(cc2c1-c1ccc(O)cc1)CCCO3 [2-[4-(morpholine-2-oxo-ethoxy)benzoyl]-3-(4-hydroxyphenyl)-6,7-dihydrogen-5H-furo[3,2-g]chromene] | 9.8 | 4.9 | – | –
CN(C)CCOc1ccc(C(=O)c2oc3cc4c(cc3c2-c2ccc(O)cc2)CCCO4)cc1 [Example 58, 2-[4-(dimethylaminoethoxy)benzoyl]-3-(4-hydroxyphenyl)-6,7-dihydrogen-5H-furo[3,2-g]chromene] | 0.6 | 22.9 | – | –
O=C(c1ccc(OCC(=O)N2CCCCC2)cc1)c1oc2cc3c(cc2c1-c1ccc(O)cc1)CCCO3 [Example 60, 2-[4-(piperidine-2-oxo-ethoxy)benzoyl]-3-(4-hydroxyphenyl)-6,7-dihydrogen-5H-furo[3,2-g]chromene] | 8.7 | 5.6 | – | –
CCN(CC)CCOc1ccc(C(=O)c2oc3cc4c(cc3c2-c2ccc(O)cc2)CCCO4)cc1 [Example 56, 2-[4-(diethylaminoethoxy)benzoyl]-3-(4-hydroxyphenyl)-6,7-dihydrogen-5H-furo[3,2-g]chromene] | 12.2 | 13.5 | 17.9 | 14.9
CCN(CC)C(=O)COc1ccc(C(=O)c2oc3cc4c(cc3c2-c2ccc(O)cc2)CCCO4)cc1 [Example 62, 2-[4-(diethylamino-2-oxo-ethoxy)benzoyl]-3-(4-hydroxyphenyl)-6,7-dihydrogen-5H-furo[3,2-g]chromene] | 38.8 | 42.3 | – | –
CN(C)C(=O)COc1ccc(C(=O)c2oc3cc4c(cc3c2-c2ccc(O)cc2)CCCO4)cc1 [Example 64, 2-[4-(dimethylamino-2-oxo-ethoxy)benzoyl]-3-(4-hydroxyphenyl)-6,7-dihydrogen-5H-furo[3,2-g]chromene] | 26.2 | 21.8 | – | –
